Reference: the NIST ThermoML archive (doi:10.1016/j.jct.2007.05.015)

Columns and labels:
[1] = 298.15 K; 101 kPa; Liquid
[2] = xn = mol fraction of the nth substance listed; conditions: 298.15 K, 101 kPa, Liquid

CN1CCCC1=O [N-methylpyrrolidone]
[1]
Conditions	mass density [kg/m3]	speed of sound [m/s]
–	1028.23	1531.5

CN1CCCC1=O [N-methylpyrrolidone] + O
[2]
Conditions	mass density [kg/m3]	speed of sound [m/s]
x1 = 0.02533	1004.51	1573.6
x1 = 0.06006	1014.28	1646.8
x1 = 0.08026	1020.63	1684.4
x1 = 0.1008	1025.71	1724.7
x1 = 0.1191	1030.16	1731.2
x1 = 0.1399	1034.69	1745.2
x1 = 0.1596	1038.09	1747.7
x1 = 0.1779	1040.14	1749.2
x1 = 0.1964	1041.52	1751.7
x1 = 0.2203	1042.98	1750.7
x1 = 0.2399	1044.35	1750.1
x1 = 0.2602	1045.7	1745.3
x1 = 0.278	1046	1741.8
x1 = 0.2987	1046.27	1735.4
x1 = 0.3296	1046.23	1725.6
x1 = 0.3794	1045.76	1707.8
x1 = 0.4497	1044.33	1687.1
x1 = 0.4986	1043.54	1670
x1 = 0.5494	1041.35	1651.2
x1 = 0.5978	1039.92	1633.6
x1 = 0.649	1037.65	1621
x1 = 0.6998	1035.76	1610.2
x1 = 0.7893	1032.74	1587.7
x1 = 0.8199	1031.82	1574.4
x1 = 0.8333	1031.01	1568.3
x1 = 0.8826	1030.54	1563.8
x1 = 0.8976	1029.93	1558.4
x1 = 0.9553	1028.92	1552.2
x1 = 1	1028.23	1531.5

NC=O [formamide]
[1]
Conditions	mass density [kg/m3]	speed of sound [m/s]
–	1128.78	1597.3

CNC=O [N-methylformamide]
[1]
Conditions	mass density [kg/m3]	speed of sound [m/s]
–	999.06	1431.9

CNC=O [N-methylformamide] + O
[2]
Conditions	mass density [kg/m3]	speed of sound [m/s]
x1 = 0.01572	999.1	1518.7
x1 = 0.03276	1001.38	1538.8
x1 = 0.05095	1003.6	1557.2
x1 = 0.07104	1005.91	1574.1
x1 = 0.09226	1007.87	1582.7
x1 = 0.1156	1010.1	1591.3
x1 = 0.141	1011.91	1601.6
x1 = 0.1714	1013.58	1606.1
x1 = 0.2005	1014.89	1606.2
x1 = 0.2339	1015.73	1603.4
x1 = 0.2714	1016.31	1598.8
x1 = 0.3047	1016.34	1594
x1 = 0.3185	1016.28	1589.3
x1 = 0.3367	1016.3	1583.7
x1 = 0.3615	1015.86	1573
x1 = 0.3853	1015.45	1560.7
x1 = 0.4166	1014.47	1551.9
x1 = 0.4456	1013.64	1542.9
x1 = 0.4785	1012.83	1534.2
x1 = 0.5109	1011.92	1526.4
x1 = 0.5497	1010.88	1514.7
x1 = 0.5805	1010.04	1507.5
x1 = 0.5913	1009.49	1502.6
x1 = 0.6164	1008.9	1497.2
x1 = 0.6335	1008.22	1493.1
x1 = 0.681	1006.72	1480.6
x1 = 0.7323	1005.35	1469
x1 = 0.779	1004.51	1462.9
x1 = 0.8279	1003.34	1454.5
x1 = 0.8535	1002.54	1449.5
x1 = 0.8763	1001.72	1446.5
x1 = 0.917	1001.03	1441.1
x1 = 0.9285	1000.72	1440.2
x1 = 1	999.06	1431.9

O=C1CCCN1 [2-pyrrolidinone] + O
[2]
Conditions	mass density [kg/m3]	speed of sound [m/s]
x1 = 0.03793	1015.26	1577.4
x1 = 0.05001	1020.61	1597.6
x1 = 0.07966	1032.48	1632.1
x1 = 0.1093	1042.93	1670
x1 = 0.122	1046.78	1684.5
x1 = 0.1582	1056.77	1708
x1 = 0.1789	1062.24	1716.5
x1 = 0.2155	1070.34	1726.6
x1 = 0.2352	1074.91	1732.1
x1 = 0.2473	1077.08	1735.2
x1 = 0.2794	1081.92	1737.3
x1 = 0.3497	1088.62	1735.5
x1 = 0.4199	1093.46	1727.8
x1 = 0.5013	1097.41	1715.8
x1 = 0.549	1099.18	1708.8
x1 = 0.6133	1101.6	1698.7
x1 = 0.6705	1102.82	1683.4
x1 = 0.7037	1103.16	1678.5
x1 = 0.8117	1105.88	1658
x1 = 0.8353	1106.12	1654.6
x1 = 0.8593	1106.38	1651.3
x1 = 0.8813	1106.59	1647.9
x1 = 0.9413	1107.13	1640.7
x1 = 1	1107.52	1633.7

CC(=O)N(C)C [N,N-dimethylethanamide] + O
[2]
Conditions	mass density [kg/m3]	speed of sound [m/s]
x1 = 0.00083	996.94	1499.8
x1 = 0.00163	996.87	1502.4
x1 = 0.03959	995.84	1616.2
x1 = 0.055	996.37	1645.5
x1 = 0.06456	996.62	1663.2
x1 = 0.08126	997.29	1678.6
x1 = 0.1	997.94	1700.3
x1 = 0.1208	998.5	1717.9
x1 = 0.1447	998.68	1730.7
x1 = 0.1714	998.55	1737.9
x1 = 0.2012	997.61	1749.4
x1 = 0.2381	995.72	1734.5
x1 = 0.2761	992.03	1719.7
x1 = 0.3245	988.32	1703.6
x1 = 0.3783	985.12	1682.1
x1 = 0.4137	982.41	1669
x1 = 0.452	979.26	1653.4
x1 = 0.4832	975.57	1638.2
x1 = 0.5372	969.73	1605.4
x1 = 0.583	965.29	1586.8
x1 = 0.6496	959.34	1559.2
x1 = 0.7074	953.42	1534.2
x1 = 0.7633	949.72	1522
x1 = 0.8342	946.12	1489
x1 = 0.9053	940.96	1482.2
x1 = 1	936.34	1455.9

CN(C)C=O [dimethylformamide] + O
[2]
Conditions	mass density [kg/m3]	speed of sound [m/s]
x1 = 0.01233	996.44	1526.3
x1 = 0.0266	996.21	1555.7
x1 = 0.0276	996.23	1554.2
x1 = 0.04154	996.18	1582.3
x1 = 0.05803	996.38	1607.4
x1 = 0.07593	996.62	1628.8
x1 = 0.09542	996.84	1647.5
x1 = 0.1173	997.02	1659
x1 = 0.1412	996.93	1675.5
x1 = 0.1677	996.02	1684.6
x1 = 0.1975	995.1	1688.2
x1 = 0.23	993.87	1687.8
x1 = 0.2866	990.18	1676.6
x1 = 0.3139	989.17	1669.3
x1 = 0.3771	984.28	1647.7
x1 = 0.4247	981.19	1629.1
x1 = 0.4494	979.47	1620.3
x1 = 0.4755	977.79	1610.1
x1 = 0.4955	976.4	1599.5
x1 = 0.5203	974.98	1592
x1 = 0.5336	974.17	1585.7
x1 = 0.555	972.69	1572.1
x1 = 0.5806	970.92	1565.8
x1 = 0.6169	968.9	1559
x1 = 0.637	967.32	1550.5
x1 = 0.6551	965.83	1545.2
x1 = 0.6931	963.35	1538.2
x1 = 0.7172	961.78	1527.7
x1 = 0.7373	960.6	1519.7
x1 = 0.753	959.56	1514.8
x1 = 0.7666	958.73	1512.3
x1 = 0.8037	956.19	1504.3
x1 = 0.8126	955.54	1501.2
x1 = 0.8469	953.57	1493
x1 = 0.8694	952.12	1491.4
x1 = 0.8911	950.68	1488.4
x1 = 0.925	948.01	1476.6
x1 = 0.9661	946.28	1469.1
x1 = 1	943.94	1457.5

CN(C)C=O [dimethylformamide]
[1]
Conditions	mass density [kg/m3]	speed of sound [m/s]
–	943.94	1457.5

O=C1CCCN1 [2-pyrrolidinone]
[1]
Conditions	mass density [kg/m3]	speed of sound [m/s]
–	1107.52	1633.7

NC=O [formamide] + O
[2]
Conditions	mass density [kg/m3]	speed of sound [m/s]
x1 = 0.01258	1001.58	1507
x1 = 0.01991	1004.13	1512.2
x1 = 0.0361	1009.48	1522.8
x1 = 0.05028	1013.93	1530.9
x1 = 0.06473	1018.25	1538.3
x1 = 0.07977	1022.53	1545.1
x1 = 0.09437	1026.49	1551
x1 = 0.1125	1031.16	1557.5
x1 = 0.1347	1036.54	1564.5
x1 = 0.1596	1042.19	1571
x1 = 0.1946	1049.41	1578.3
x1 = 0.2295	1056.08	1584.1
x1 = 0.2548	1060.55	1587.5
x1 = 0.2731	1063.6	1589.5
x1 = 0.2919	1066.61	1591.4
x1 = 0.3343	1072.9	1594.7
x1 = 0.3711	1077.91	1596.7
x1 = 0.4046	1082.13	1598.1
x1 = 0.4552	1088.06	1599.4
x1 = 0.4884	1091.6	1600
x1 = 0.5025	1093.05	1600.2
x1 = 0.5225	1094.97	1600.3
x1 = 0.5564	1098.27	1600.5
x1 = 0.595	1101.68	1600.5
x1 = 0.6298	1104.65	1600.5
x1 = 0.6714	1107.95	1600.2
x1 = 0.702	1110.28	1600
x1 = 0.723	1111.82	1599.8
x1 = 0.7544	1113.99	1599.6
x1 = 0.78	1115.76	1599.4
x1 = 0.8094	1117.67	1599.1
x1 = 0.8358	1119.42	1598.8
x1 = 0.8752	1121.79	1598.6
x1 = 0.917	1124.23	1598.2
x1 = 0.9465	1125.98	1598
x1 = 0.9702	1127.29	1597.9
x1 = 1	1128.78	1597.3

CC(=O)N(C)C [N,N-dimethylethanamide]
[1]
Conditions	mass density [kg/m3]	speed of sound [m/s]
–	936.34	1455.9
